Several values for one entry are separate records, joined by “and”; a condition that tells them apart may be missing. Identical values can stand only once. Like-named read-outs stand apart in the source and are kept apart here.
Tests used:
[1] = molecular target: T1, HIV-1 WT RT (Human immunodeficiency virus type 1 group M subtype B, UniProt P03366); experiment: biochemical
T1 construct: purified RT protein (0.015 mg/mL) was incubated in a 100 µL reaction mixture

[2] = system: WT virus (NL4-3); experiment: microbe, parasite or virus in culture; format: cell-based, HIV-1
In short: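 CEM-SS cells (5 x 10^3/well) infected with HIV-1 at an MOI giving complete killing by day 6 (e.g., 0.01-0.05), with serial half-log compound dilutions in triplicate. After 6 days at 37°C, viability read by XTT reduction at 450 nm. CIC50 derived from protection against cytopathic killing.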

[3] = system: NL4-3 (WT); experiment: Cytopathic cell killing assay, cross-resistance profile, infected MT-4 cells; format: cell-based, HIV-1
Description: (§1) The various HIV isolates tested in the Figures are those corresponding to wild-type virus (NL4-3) and the other strains listed by their RT mutations. The three 4xAZT isolates included in the Figures represent AZT drug-resistant variants. For example, the 4xAZT/L100I isolate has five mutations: four mutations confer increased resistance to AZT, and the other mutation is located within the NNRTI binding pocket. TZB and nevir. (nevirapine) are two well-known NNRTIs, included in this experiment for comparison purposes. […]
(§2) In this Example, the antiviral and cellular toxicity of NNRTIs was investigated, using the cytopathic cell killing assay described by Yang (Yang et al., "Characteristics of a Group of Non-nucleoside Reverse Transcriptase Inhibitors with Structural Diversity and Potent Anti-Human Immunodeficiency Virus Activity," Leukemia 9:S75-S85 [1995]). Briefly, in this method cells (e.g., the CEM-SS cell line, available from the NIAID AIDS Research and Reference Program [ARRRP]) were seeded at a density of 5 x 10^3 cells/well, into the wells of a 96-well microtiter plate. The cells were then infected with HIV virus (either mutant or WT), at a multiplicity of infection (MOI) previously determined to provide complete cell killing by 6 days of culture post-infection (e.g., MOI of 0.01-0.05). Each of the HIV isolates was pre-titered to induce equivalent levels of infection based on cell killing or virus production, prior to their use in these assays. A range of test compound concentrations was added to the wells in triplicate (e.g., serial half-log dilutions) to evaluate inhibition of HIV infection. Controls for each assay included drug controls (drug colorimetric control wells), drug cytotoxicity control wells (cells with drug), virus control wells (cells with virus), and cell viability controls (cells only). Positive control drugs (e.g., AZT and ddC) were also run in parallel.
(§3) After six days of incubation at 37°C, cell viability was determined spectrophotometrically at 450 nm for each well, using the metabolic reduction of XTT to a soluble colored formazan. (See, Gartner and Popovic, "Virus Isolation and Production, in Aldovini and Walker (eds.), Techniques in HIV Research, Stockton Press, NY, pp. […] [1991]; and Nara and Fischinger, "Quantitative Infectivity Assay for HIV-1 and HIV-2," Nature 332:469-470 [1988]).
(§4) The in vitro therapeutic index (TI50) was defined as the fold-difference between the EC50 and IC50. The results for the various compounds are included in Figures 8 and 19.

[4] = system: HIV-1 isolate 4xAZT/Y181C; experiment: as above; format: cell-based
Description: as §1, §2, §3, §4

[5] = system: HIV-1 isolate 4xAZT; experiment: as above; format: cell-based
Description: as §1, §2, §3, §4

[6] = system: HIV-1 variant A98G; experiment: as above; format: cell-based
Description: as §1, §2, §3, §4

[7] = system: HIV-1 variant K101E; experiment: as above; format: cell-based; conditions: isolate K101E
Description: as §1, §2, §3, §4

[8] = system: HIV-1 variant K103N; experiment: as above; format: cell-based; conditions: for EC50: isolate K103N
Description: as §1, §2, §3, §4

[9] = system: HIV-1 variant L100I; experiment: as above; format: cell-based
Description: as §1, §2, §3, §4

[10] = system: HIV-1 variant L74V; experiment: as above; format: cell-based
Description: as §1, §2, §3, §4

[11] = system: HIV-1 variant M184l; experiment: as above; format: cell-based
Description: as §1, §2, §3, §4

[12] = system: HIV-1 variant V106A; experiment: as above; format: cell-based
Description: as §1, §2, §3, §4

[13] = system: HIV-1 variant V108I; experiment: as above; format: cell-based
Description: as §1, §2, §3, §4

[14] = system: HIV-1 variant V179D; experiment: as above; format: cell-based
Description: as §1, §2, §3, §4

[15] = system: HIV-1 variant Y188C; experiment: as above; format: cell-based
Description: as §1, §2, §3, §4

[16] = system: HIV-1 variant Y188H; experiment: as above; format: cell-based
Description: as §1, §2, §3, §4

[17] = system: HIV-1 isolate 4xAZT/L100I; experiment: as above; format: cell-based
Experimental: The various HIV isolates tested in the Figures are those corresponding to wild-type virus (NL4-3) and the other strains listed by their RT mutations. The three 4xAZT isolates included in the Figures represent AZT drug-resistant variants. […]
as §2, with “Briefly,” for “In this Example, the antiviral and cellular toxicity of NNRTIs was investigated, using the cytopathic cell killing assay described by Yang (Yang et al., "Characteristics of a Group of Non-nucleoside Reverse Transcriptase Inhibitors with Structural Diversity and Potent Anti-Human Immunodeficiency Virus Activity," Leukemia 9:S75-S85 [1995]). Briefly,”
as §3
The in vitro therapeutic index (TI50) was defined as the fold-difference between the EC50 and IC50.

[18] = system: HIV-1 variant Y181C; experiment: as above; format: cell-based
Description: as §1, §2, §3, §4

[19] = Table 7, HIV-1 WT RT, read-out: IC50
[20] = Table 11, WT RT, read-out: IC50
[21] = Table 7, WT HIV-1 RT, 1 µM drug, read-out: %inhibn (1µM)
[22] = Human immunodeficiency virus 1, NL43, CEM-SS, Table 7, concentration reducing cell killing or virus production by 50%, HIV-1 WT, read-out: EC50
[23] = Human immunodeficiency virus 1, NL43, CEM-SS, Table 11, CEMSS/NL4-3, NRVC = reduction in viral CPE not seen (footnote), read-out: EC50
[24] = Human immunodeficiency virus 1, NL43, MT4, Table 8, isolate N1.43
[25] = Human immunodeficiency virus 1, NL43, MT4, Table 10 (values in µM), isolate NL4-3 (WT)
[26] = Human immunodeficiency virus 1, MT4, Table 8, isolate 4XAZT
[27] = Human immunodeficiency virus 1, MT4, Table 8, isolate A9SG
[28] = Human immunodeficiency virus 1, MT4, Table 8
[29] = Human immunodeficiency virus 1, MT4, Table 10 (values in µM)
[30] = Human immunodeficiency virus 1, MT4, Table 8, isolate 1.1001
[31] = Human immunodeficiency virus 1, MT4, Table 10 (values in µM), isolate L1001
[32] = Human immunodeficiency virus 1, MT4, Table 8, isolate 1.74V
[33] = Human immunodeficiency virus 1, MT4
[34] = Human immunodeficiency virus 1, MT4, Table 8, isolate V 106A
[35] = Human immunodeficiency virus 1, MT4, Table 8, isolate V1081
[36] = Human immunodeficiency virus 1, MT4, Table 10 (values in µM), isolate V108l
[37] = Human immunodeficiency virus 1, MT4, Table 8, isolate V179D
[38] = Human immunodeficiency virus 1, MT4, Table 10 (values in µM), isolate Y181C
[39] = Human immunodeficiency virus 1, MT4, Table 8, isolate Y 188C

Molecule | IC50 ([1]; HIV-1 WT RT, read-out: IC50) [nM] | IC50 [1, 19] [nM] | IC50 [1, 20] [nM] | inhibition at 1 µM [1, 21] [%] | EC50 [2, 22] [nM] | EC50 [2, 23] [nM] | EC50 [3, 24] [µM] | EC50 [3, 25] [µM] | EC50 [5, 26] [nM] | EC50 [7, 28] [µM] | EC50 [7, 29] [µM] | EC50 [8, 28] [µM] | EC50 [8, 29] [µM] | EC50 [9, 30] [µM] | EC50 [9, 31] [µM] | EC50 [11, 33] [µM] | EC50 [13, 35] [µM] | EC50 [13, 36] [µM] | EC50 [18, 38] [µM] | EC50 [16, 33] [µM] | other results
4-amino-1-(2,6-difluorobenzyl)-2-(2,6-difluorophenyl)benzimidazole [compound 53] | 280 | 280 | 280 |  |  |  |  |  |  |  |  |  |  |  |  |  |  |  |  |  | %inhibn (1µM) ([1]; Table 7, WT HIV-1 RT, 1 µM drug): 69%; EC50 ([2]; Table 7, concentration reducing cell killing or virus production by 50%, HIV-1 WT, read-out: EC50): 460 nM; EC50 ([2]; Table 11, CEMSS/NL4-3, NRVC = reduction in viral CPE not seen (footnote), read-out: EC50): 460 nM; EC50 ([3]; Table 8, isolate N1.43, read-out: EC50): 0.5 µM; EC50 ([3]; Table 10 (values in µM), isolate NL4-3 (WT), listed as NH2, read-out: EC50): 0.68 µM and 0.4 µM; EC50 ([4]; Table 8, isolate 4XAZT /Y181C, read-out: EC50): > 10 µM; EC50 ([5]; Table 8, isolate 4XAZT, read-out: EC50): 200 nM; EC50 ([6]; Table 8, isolate A9SG, read-out: EC50): 1.5 µM; EC50 ([7]; Table 8, read-out: EC50): > 20 µM; EC50 ([8]; Table 8, read-out: EC50): > 20 µM; EC50 ([9]; Table 8, isolate 1.1001, read-out: EC50): 1.3 µM; EC50 ([10]; Table 8, isolate 1.74V, read-out: EC50): 300 nM; EC50 ([11]; Table 10 (values in µM), isolate M184l, read-out: EC50): 0.65 µM; EC50 ([12]; Table 8, isolate V 106A, read-out: EC50): > 20 µM; EC50 ([13]; Table 8, isolate V1081, read-out: EC50): > 20 µM; EC50 ([14]; Table 8, isolate V179D, read-out: EC50): 6000 nM; EC50 ([15]; Table 8, isolate Y 188C, read-out: EC50): 2.7 µM; EC50 ([15]; Table 10 (values in µM), isolate Y188C, read-out: EC50): 2 µM; EC50 ([16]; Table 10 (values in µM), isolate Y188H, read-out: EC50): > 50 µM; EC50 ([17]; Table 8, isolate 4XA7T L 1001, read-out: EC50): 300 nM
COc1cccc2c1nc(-c1c(F)cccc1F)n2Cc1c(F)cccc1F [compound 44, 1-(2,6-difluorobenzyl)-2-(2,6-difluorophenyl)-4-methoxylbenzimidazole] | 7.3 | 7.3 | 7.3 | 85 | 4.6 | 60 | 0.06 | 0.165 | 6000 | 3.3 | 2.82 | > 20 | > 50 | 0.1 | 0.16 | 0.16 | 2.5 | 2.82 | 0.26 | 0.26 | IC50 ([1]; WT RT, read-out: IC50): 7.3 nM; EC50 ([2]; Human immunodeficiency virus 1, NL43, CEM-SS, cytopathic cell killing assay, HIV-1 WT, read-out: EC50): 4.6 nM; EC50 [6, 27]: 0.3 µM; activity against the K103N mutation / isolate ([8]; result in words, cytopathic cell killing assay): failed to show any activity; EC50 [10, 32]: 80 nM; EC50 [12, 34]: 1.4 µM; EC50 [14, 37]: 200 nM; EC50 [15, 39]: 0.3 µM
CCc1cccc2c1nc(-c1c(F)cccc1F)n2Cc1c(F)cccc1F [compound 47, 1-(2,6-difluorobenzyl)-2-(2,6-difluorophenyl)-4-ethylbenzimidazole] |  |  |  |  |  |  | 1.1 | 0.9 |  | > 20 | > 50 | > 20 | > 50 | 0.6 | 2.48 | 0.96 | 3 | > 50 |  | 13.2 | IC50 [1]: 17500 nM; inhibition at 1 µM ([1]; read-out: %inhibn (1µM)): 50%; EC50 ([2]; Human immunodeficiency virus 1, NL43, CEM-SS): 820 nM; EC50 [4, 33]: > 20 µM; EC50 [5, 33]: 1000 nM; EC50 [6, 33]: 8 µM; EC50 [10, 33]: 1500 nM; EC50 [12, 33]: > 20 µM; EC50 [14, 33]: 1800 nM; EC50 [18, 33]: 7.18 µM; EC50 [15, 33]: 5.5 µM; EC50 [17, 33]: 600 nM
O=[N+]([O-])c1cccc2c1nc(-c1c(F)cccc1F)n2Cc1c(F)cccc1F [compound 48, 1-(2,6-difluorobenzyl)-2-(2,6-difluorophenyl)-4-nitrobenzimidazole] |  | 1880 |  | 51 | 2400 |  |  | 3.13 |  |  | > 50 |  | > 50 |  | 0.83 | 3.69 |  | > 50 | > 50 | > 50 | 
Fc1cccc(F)c1Cn1c(-c2c(F)cccc2F)nc2c(Cl)cccc21 [compound 55, 4-chloro-1-(2,6-difluorobenzyl)-2-(2,6-difluorophenyl)benzimidazole] |  | 2630 | 2630 | 75 | 440 | 440 | 0.1 | 0.5 | 200 | > 20 | > 20 | > 20 | 10.2 | 0.2 | 0.3 |  | 3.6 | 3.2 | 8.4 |  | inhibition at 1 µM ([1]; Table 6, WT HIV-1 RT, 1 µM drug, average of two experiments done in triplicates, read-out: %Inhibn (1µM)): 75%; EC50 ([4]; Human immunodeficiency virus 1, MT4, Table 8, isolate 4XAZT /Y181C): > 20 µM; EC50 [6, 27]: 5 µM; EC50 [10, 32]: 500 nM; EC50 [12, 34]: > 10 µM; EC50 [14, 37]: 800 nM; EC50 [15, 39]: 5.4 µM; EC50 ([15]; Human immunodeficiency virus 1, MT4, Table 10 (values in µM), isolate Y188C): 3.4 µM; EC50 ([17]; Human immunodeficiency virus 1, MT4, Table 8, isolate 4XA7T L 1001): 200 nM

From EP1210336B1, “SUBSTITUTED BENZIMIDAZOLES AS NON-NUCLEOSIDE INHIBITORS OF REVERSE TRANSCRIPTASE” (THE UNITED STATES OF AMERICA, as represented by the …, priority 1999, dated 2001)
